The source of these data is PubChem BioAssay (NCI).

Some test systems named below: DU-145 prostate; EKVX NSCLC; HCT-116 colon; HL-60(TB) leukemia; NCI-H23 lung; OVCAR-8 ovarian; SK-OV-3 ovarian; SN12C renal; T-47D breast; UO-31 renal.
Holding throughout (test): NCI anticancer screen, dose series, 48 h

SMILES strings stand for the structures.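 Method: 48-hour compound exposure of cells in 96-well plates, five concentrations, linear interpolation of endpoints. TGI: total growth inhibition.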 Some results are limits rather than exact numbers.

In the case of `CC(=O)N(C(=O)CC(=O)N1N=C(c2ccccc2)C(N=Nc2ccccc2[N+](=O)[O-])C1=O)c1ccc(Cl)cc1` (stereo not drawn), the TGI with DU-145 prostate, in the assay with EKVX NSCLC, with HCT-116 colon, with HL-60(TB) leukemia, with NCI-H23 lung and in the assay on OVCAR-8 ovarian was over 10 µM throughout. Further, the TGI with SK-OV-3 ovarian, with SN12C renal, with T-47D breast and with UO-31 renal was over 10 µM throughout.

In the case of `COc1nncc2[nH]c(-c3ccccc3)cc12`, the TGI in the assay with DU-145 prostate, with EKVX NSCLC, with HCT-116 colon, in the assay with HL-60(TB) leukemia, with NCI-H23 lung and in the assay with OVCAR-8 ovarian was over 100 µM each time. The TGI in the assay on SK-OV-3 ovarian, in the assay on SN12C renal, in the assay on T-47D breast and in the assay with UO-31 renal was over 100 µM throughout.

`CC(=O)Oc1cccc2c1C(=O)CCCC2`: the TGI in the assay with DU-145 prostate, in the assay on EKVX NSCLC, with HCT-116 colon, in the assay on HL-60(TB) leukemia, with NCI-H23 lung and in the assay with OVCAR-8 ovarian was over 100 µM each time. The TGI in the assay with SK-OV-3 ovarian, in the assay on SN12C renal, in the assay with T-47D breast and in the assay with UO-31 renal was over 100 µM each time.

As to `Cc1cc(C)nc(NS(=O)(=O)c2ccc(NC(=O)c3ccc4nc5ccccc5c(Nc5ccc(S(N)(=O)=O)cc5)c4c3)cc2)n1`, the TGI with DU-145 prostate, with EKVX NSCLC, in the assay on HCT-116 colon, with HL-60(TB) leukemia, with NCI-H23 lung and in the assay on OVCAR-8 ovarian was over 100 µM each time. Further, the TGI in the assay on SK-OV-3 ovarian, with SN12C renal, in the assay with T-47D breast and with UO-31 renal was over 100 µM each time.

Regarding `CC(=O)/C=C/C1=C(C)CCCC1(C)CC(C)C` (stereo not drawn), the TGI in the assay on DU-145 prostate is over 100 µM; in the assay with EKVX NSCLC it was over 100 µM; in the assay with HCT-116 colon it was 77.8 µM; in the assay on HL-60(TB) leukemia it was 30.3 µM; with NCI-H23 lung, over 100 µM; in the assay on OVCAR-8 ovarian, over 100 µM. Moreover, the TGI with SK-OV-3 ovarian was over 100 µM; with SN12C renal, 38.5 µM; in the assay on T-47D breast, 55.5 µM; with UO-31 renal, over 100 µM.

As for `Nn1c(-c2ccccc2)n[nH]c1=O`, the TGI with DU-145 prostate, in the assay on EKVX NSCLC, with HCT-116 colon, with HL-60(TB) leukemia, in the assay with NCI-H23 lung and in the assay with OVCAR-8 ovarian was over 100 µM throughout. Further, the TGI in the assay with SK-OV-3 ovarian, in the assay on SN12C renal, in the assay on T-47D breast and in the assay with UO-31 renal was over 100 µM throughout.

Consider `O=[N+]([O-])c1ccc2[nH]nc(OCc3ccccc3Cl)c2c1`, for which the TGI in the assay with DU-145 prostate was over 100 µM; in the assay with EKVX NSCLC, over 100 µM; with HCT-116 colon, 74.7 µM; in the assay with HL-60(TB) leukemia it was over 100 µM; in the assay on NCI-H23 lung, over 100 µM; with OVCAR-8 ovarian it was over 100 µM. Further, the TGI with SK-OV-3 ovarian was 31.9 µM; in the assay with SN12C renal, over 100 µM; in the assay with T-47D breast, 42.9 µM.

Regarding `Nn1c(Nc2ccc(S(=O)(=O)Nc3ncccn3)cc2)nnc(/C=C/c2c(O)ccc3ccccc23)c1=O`, the TGI in the assay with DU-145 prostate was over 100 µM; with EKVX NSCLC, 69.6 µM; in the assay with HCT-116 colon, 51.1 µM; in the assay on HL-60(TB) leukemia, 45.2 µM; in the assay with NCI-H23 lung it was 45.6 µM; in the assay on OVCAR-8 ovarian, over 100 µM. Further, the TGI with SN12C renal is over 100 µM; with T-47D breast, 96.8 µM; in the assay on UO-31 renal, over 100 µM.

For the compound `CCOC(=O)N1CCN(Cc2cc(=O)n3ccc(C)cc3n2)CC1`, the TGI in the assay on DU-145 prostate, in the assay with EKVX NSCLC, in the assay with HCT-116 colon, in the assay with HL-60(TB) leukemia, with NCI-H23 lung and in the assay on OVCAR-8 ovarian was over 100 µM throughout. In addition, the TGI in the assay on SK-OV-3 ovarian, in the assay with SN12C renal, in the assay on T-47D breast and in the assay with UO-31 renal was over 100 µM each time.

`Nc1nc(-c2ccccc2)nc2oc(-c3cccs3)nc12`: the TGI in the assay with DU-145 prostate, with EKVX NSCLC, in the assay with HCT-116 colon, with HL-60(TB) leukemia, with NCI-H23 lung and in the assay with OVCAR-8 ovarian was over 100 µM throughout. In addition, the TGI in the assay on SN12C renal, in the assay with T-47D breast and in the assay with UO-31 renal was over 100 µM in each case.

Turning to `COc1ccc(-n2c(C)nc3ccc(NC(=S)Nc4ccccc4)cc3c2=O)cc1`, the TGI with DU-145 prostate, in the assay on EKVX NSCLC, in the assay with HCT-116 colon, in the assay with HL-60(TB) leukemia, with NCI-H23 lung and with OVCAR-8 ovarian was over 100 µM in each case. Also, the TGI with SN12C renal, in the assay with T-47D breast and in the assay with UO-31 renal was over 100 µM throughout.

Regarding `O=C(Cc1ccc(O)c(O)c1)NCc1c[nH]c2ccccc12`, the TGI was over 100 µM in the assay with DU-145 prostate; over 100 µM in the assay with EKVX NSCLC; over 100 µM in the assay with HCT-116 colon; 85.7 µM in the assay with HL-60(TB) leukemia; over 100 µM in the assay with NCI-H23 lung; over 100 µM in the assay on OVCAR-8 ovarian. Moreover, the TGI in the assay on SK-OV-3 ovarian, in the assay with T-47D breast and in the assay on UO-31 renal was over 100 µM throughout.

With `Oc1ccccc1CNCc1nc2ccccc2[nH]1`, the TGI in the assay on DU-145 prostate, with EKVX NSCLC, with HCT-116 colon, in the assay with HL-60(TB) leukemia, with NCI-H23 lung and with OVCAR-8 ovarian was over 100 µM each time. Further, the TGI in the assay with SN12C renal is over 100 µM; in the assay with T-47D breast it was over 100 µM; in the assay with UO-31 renal, 49.1 µM.

For `O=C(OCc1ccccc1)N1CCNCCN(C(=O)OCc2ccccc2)CCNCC1`, the TGI was over 100 µM with DU-145 prostate; over 100 µM in the assay on EKVX NSCLC; 42.9 µM with HCT-116 colon; 93.4 µM with HL-60(TB) leukemia; over 100 µM in the assay on OVCAR-8 ovarian; over 100 µM in the assay on SK-OV-3 ovarian. The values for the TGI in the assay with SN12C renal, with T-47D breast and in the assay on UO-31 renal were over 100 µM, 32.7 µM and 38.5 µM, respectively.
